Experiment: mn = molality of the nth substance listed, in mol/kg
Settings: 101 kPa, Liquid; for mass density: Vibrating tube method; for speed of sound: Single path-length method

O [water] + CCCCn1cc[n+](C)c1.[Br-]
Settings | mass density [kg/m3]
308.15 K, m2 = 0 | 994.062

CCCCn1cc[n+](C)c1.[Br-] [1-butyl-3-methylimidazolium bromide] + O
Settings | mass density, 288.15 K [kg/m3] | mass density, 293.15 K [kg/m3] | mass density, 298.15 K [kg/m3] | mass density, 303.15 K [kg/m3] | mass density, 308.15 K [kg/m3] | speed of sound, 288.15 K [m/s] | speed of sound, 293.15 K [m/s] | speed of sound, 298.15 K [m/s] | speed of sound, 303.15 K [m/s] | speed of sound, 308.15 K [m/s]
m1 = 0.1019 | 1004.34 | 1003.53 | 1002.16 | 1000.83 | 999.035 | 1479 | 1494.2 | 1506.8 | 1518.8 | 1528.1
m1 = 0.3048 | 1000.67 | 999.754 | 998.577 | 997.164 | 995.54 | 1470.2 | 1486.1 | 1500 | 1512.1 | 1522.2

O [water] + CCOC(=O)CC(C)=O
Settings | mass density [kg/m3]
308.15 K, m2 = 0 | 994.062

CCOC(=O)CC(C)=O [ethyl 3-oxobutanoate] + O
Settings | mass density, 288.15 K [kg/m3] | mass density, 293.15 K [kg/m3] | mass density, 298.15 K [kg/m3] | mass density, 303.15 K [kg/m3] | mass density, 308.15 K [kg/m3] | speed of sound, 288.15 K [m/s] | speed of sound, 293.15 K [m/s] | speed of sound, 298.15 K [m/s] | speed of sound, 303.15 K [m/s] | speed of sound, 308.15 K [m/s]
m1 = 0.076 | 1000.05 | 999.128 | 997.91 | 996.474 | 994.809 | 1472.6 | 1487.8 | 1501.3 | 1513 | 1523.1
m1 = 0.1625 | 1001.1 | 1000.13 | 998.838 | 997.358 | 995.64 | 1479.2 | 1493.6 | 1506.4 | 1517.4 | 1526.9
m1 = 0.2495 | 1002.14 | 1001.1 | 999.76 | 998.22 | 996.445 | 1485.5 | 1499.2 | 1511.2 | 1521.6 | 1530.4
m1 = 0.3767 | 1003.62 | 1002.48 | 1001.05 | 999.44 | 997.59 | 1494.1 | 1506.7 | 1517.7 | 1527.1 | 1535
m1 = 0.4725 | 1004.7 | 1003.48 | 1002 | 1000.32 | 998.41 | 1500 | 1511.7 | 1522 | 1530.8 | 1538.1
m1 = 0.5324 | 1005.38 | 1004.1 | 1002.58 | 1000.86 | 998.9 | 1503.4 | 1514.7 | 1524.5 | 1532.9 | 1539.8
m1 = 0.6848 | 1007.03 | 1005.6 | 1004 | 1002.18 | 1000.12 | 1511.6 | 1521.7 | 1530.5 | 1537.8 | 1543.7
m1 = 0.7843 | 1008.1 | 1006.56 | 1004.9 | 1003.01 | 1000.9 | 1516.3 | 1525.7 | 1533.7 | 1540.4 | 1545.8
m1 = 0.9019 | 1009.31 | 1007.65 | 1005.93 | 1003.94 | 1001.76 | 1521.4 | 1529.9 | 1537.2 | 1543.1 | 1547.8

O [water] + COC(=O)CC(C)=O
Settings | mass density [kg/m3]
308.15 K, m2 = 0 | 994.062

COC(=O)CC(C)=O [methyl 3-oxobutanoate] + O
Settings | mass density, 288.15 K [kg/m3] | mass density, 293.15 K [kg/m3] | mass density, 298.15 K [kg/m3] | mass density, 303.15 K [kg/m3] | mass density, 308.15 K [kg/m3] | speed of sound, 288.15 K [m/s] | speed of sound, 293.15 K [m/s] | speed of sound, 298.15 K [m/s] | speed of sound, 303.15 K [m/s] | speed of sound, 308.15 K [m/s]
m1 = 0.0809 | 1000.36 | 999.43 | 998.205 | 996.78 | 995.12 | 1472.5 | 1487.7 | 1501.3 | 1513.1 | 1523.2
m1 = 0.1654 | 1001.65 | 1000.66 | 999.37 | 997.9 | 996.2 | 1477.3 | 1491.9 | 1504.8 | 1516.1 | 1525.7
m1 = 0.285 | 1003.44 | 1002.36 | 1001 | 999.454 | 997.68 | 1484.7 | 1498.3 | 1510.5 | 1521 | 1529.9
m1 = 0.386 | 1004.9 | 1003.75 | 1002.33 | 1000.73 | 998.91 | 1490.1 | 1503.1 | 1514.6 | 1524.4 | 1532.7
m1 = 0.4607 | 1005.98 | 1004.75 | 1003.3 | 1001.65 | 999.79 | 1494.2 | 1506.6 | 1517.6 | 1527 | 1534.9
m1 = 0.5604 | 1007.37 | 1006.06 | 1004.56 | 1002.85 | 1000.94 | 1499.6 | 1511.4 | 1521.7 | 1530.5 | 1537.9
m1 = 0.6367 | 1008.4 | 1007.01 | 1005.53 | 1003.74 | 1001.79 | 1503 | 1514.2 | 1524.1 | 1532.5 | 1539.5
m1 = 0.7871 | 1010.4 | 1008.9 | 1007.35 | 1005.47 | 1003.45 | 1509.8 | 1520.2 | 1529.1 | 1536.7 | 1542.9
m1 = 0.8429 | 1011.13 | 1009.58 | 1008 | 1006.11 | 1004.04 | 1512.2 | 1522.2 | 1530.9 | 1538.1 | 1544
